# Reference: ChEMBL document CHEMBL2321873, “1-(4-Phenylpiperazin-1-yl)-2-(1H-pyrazol-1-yl)ethanones as novel CCR1 antagonists” (Bioorg Med Chem Lett, 2013)
# Activity calls are given as the source filed them. The calls are words filed in the database; no cut-off is given here.
# Key:
# [1] = target: T1, Atypical chemokine receptor 1 (Homo sapiens) (UniProt Q16570); test: Antagonist activity at Duffy (unknown origin) assessed as inhibition of chemotaxis at 10 uM
# T1 sequence (whole entry): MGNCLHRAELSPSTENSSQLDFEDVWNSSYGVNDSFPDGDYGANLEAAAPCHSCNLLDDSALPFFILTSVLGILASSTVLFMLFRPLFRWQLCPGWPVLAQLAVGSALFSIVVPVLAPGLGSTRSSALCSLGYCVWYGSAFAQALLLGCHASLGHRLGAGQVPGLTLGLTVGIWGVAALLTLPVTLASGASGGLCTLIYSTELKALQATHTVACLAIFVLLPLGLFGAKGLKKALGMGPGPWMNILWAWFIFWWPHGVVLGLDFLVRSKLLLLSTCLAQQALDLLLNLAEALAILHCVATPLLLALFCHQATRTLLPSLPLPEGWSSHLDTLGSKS
# [2] = target: Atypical chemokine receptor 3 (Homo sapiens) (UniProt P25106); test: Antagonist activity at CXCR7 (unknown origin) assessed as inhibition of chemotaxis at 10 uM
# Chain of Atypical chemokine receptor 3 (Homo sapiens) (P25106 whole entry): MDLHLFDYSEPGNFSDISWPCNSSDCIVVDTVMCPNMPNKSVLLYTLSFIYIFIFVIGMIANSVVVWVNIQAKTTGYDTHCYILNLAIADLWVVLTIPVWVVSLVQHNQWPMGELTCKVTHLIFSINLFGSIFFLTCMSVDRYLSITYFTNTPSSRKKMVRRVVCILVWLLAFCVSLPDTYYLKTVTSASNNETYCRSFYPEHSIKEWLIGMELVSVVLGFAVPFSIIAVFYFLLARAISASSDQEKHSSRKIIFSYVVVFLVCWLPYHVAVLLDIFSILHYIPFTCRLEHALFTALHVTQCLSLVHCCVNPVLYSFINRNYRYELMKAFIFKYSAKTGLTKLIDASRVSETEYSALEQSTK
# [3] = target: T2, C-C chemokine receptor type 10 (Homo sapiens) (UniProt P46092); test: Antagonist activity at CCR10 (unknown origin) assessed as inhibition of chemotaxis at 10 uM
# T2 sequence (whole entry): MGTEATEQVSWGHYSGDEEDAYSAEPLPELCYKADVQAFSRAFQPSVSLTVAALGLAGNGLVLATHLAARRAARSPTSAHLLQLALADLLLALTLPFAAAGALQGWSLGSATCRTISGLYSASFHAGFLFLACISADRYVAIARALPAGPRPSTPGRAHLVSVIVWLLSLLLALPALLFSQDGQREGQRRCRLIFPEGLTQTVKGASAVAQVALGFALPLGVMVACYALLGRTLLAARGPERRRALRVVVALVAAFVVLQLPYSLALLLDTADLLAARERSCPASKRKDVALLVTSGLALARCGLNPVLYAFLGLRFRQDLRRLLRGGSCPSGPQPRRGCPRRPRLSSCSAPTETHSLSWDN
# [4] = target: T3, C-C chemokine receptor type 9 (Homo sapiens) (UniProt P51686); test: Antagonist activity at CCR9 (unknown origin) assessed as inhibition of chemotaxis at 10 uM
# T3 sequence (whole entry): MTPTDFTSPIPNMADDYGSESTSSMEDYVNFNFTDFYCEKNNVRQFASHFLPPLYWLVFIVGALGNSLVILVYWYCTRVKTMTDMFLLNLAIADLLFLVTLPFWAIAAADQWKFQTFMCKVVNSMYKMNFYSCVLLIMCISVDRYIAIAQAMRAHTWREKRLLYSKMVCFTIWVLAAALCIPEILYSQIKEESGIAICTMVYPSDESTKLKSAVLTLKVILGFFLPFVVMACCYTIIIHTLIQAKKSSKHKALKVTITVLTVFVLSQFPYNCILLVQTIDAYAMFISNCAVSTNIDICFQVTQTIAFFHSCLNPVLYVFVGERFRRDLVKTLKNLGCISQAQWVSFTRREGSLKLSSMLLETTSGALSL
# [5] = target: C-C chemokine receptor type 8 (Homo sapiens) (UniProt P51685); test: Antagonist activity at CCR8 (unknown origin) assessed as inhibition of chemotaxis at 10 uM
# Chain of C-C chemokine receptor type 8 (Homo sapiens) (P51685 whole entry): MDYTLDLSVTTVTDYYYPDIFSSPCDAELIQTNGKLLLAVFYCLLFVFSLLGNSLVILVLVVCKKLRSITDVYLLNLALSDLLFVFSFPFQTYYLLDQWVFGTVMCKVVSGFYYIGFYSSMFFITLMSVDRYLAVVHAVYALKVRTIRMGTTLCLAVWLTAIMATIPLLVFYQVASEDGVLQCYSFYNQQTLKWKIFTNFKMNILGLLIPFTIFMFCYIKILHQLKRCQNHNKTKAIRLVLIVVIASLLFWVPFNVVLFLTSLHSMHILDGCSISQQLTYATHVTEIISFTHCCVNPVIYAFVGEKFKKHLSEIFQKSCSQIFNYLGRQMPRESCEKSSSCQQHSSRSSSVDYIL
# [6] = target: C-C chemokine receptor type 5 (Homo sapiens) (UniProt P51681); test: Antagonist activity at CCR5 (unknown origin) assessed as inhibition of chemotaxis at 10 uM
# Chain of C-C chemokine receptor type 5 (Homo sapiens) (P51681 whole entry, looked up): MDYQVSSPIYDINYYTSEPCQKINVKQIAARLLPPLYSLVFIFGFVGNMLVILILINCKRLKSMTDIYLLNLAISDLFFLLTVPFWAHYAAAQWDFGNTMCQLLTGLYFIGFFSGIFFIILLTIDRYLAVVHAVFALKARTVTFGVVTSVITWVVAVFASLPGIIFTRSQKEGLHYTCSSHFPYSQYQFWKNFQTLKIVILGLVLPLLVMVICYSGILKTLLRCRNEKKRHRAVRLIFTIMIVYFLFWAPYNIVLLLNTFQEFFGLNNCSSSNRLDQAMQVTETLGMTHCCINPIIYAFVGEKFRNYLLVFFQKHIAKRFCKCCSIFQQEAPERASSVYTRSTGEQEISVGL
# Cytomegalovirus [7] = test: Antagonist activity at CMV US28 assessed as inhibition of calcium flux at 10 uM
# [8] = target: T4, C-X-C chemokine receptor type 2 (Homo sapiens) (UniProt P25025); test: Antagonist activity at CXCR2 (unknown origin) assessed as inhibition of calcium flux at 10 uM; format: functional
# T4 sequence (whole entry): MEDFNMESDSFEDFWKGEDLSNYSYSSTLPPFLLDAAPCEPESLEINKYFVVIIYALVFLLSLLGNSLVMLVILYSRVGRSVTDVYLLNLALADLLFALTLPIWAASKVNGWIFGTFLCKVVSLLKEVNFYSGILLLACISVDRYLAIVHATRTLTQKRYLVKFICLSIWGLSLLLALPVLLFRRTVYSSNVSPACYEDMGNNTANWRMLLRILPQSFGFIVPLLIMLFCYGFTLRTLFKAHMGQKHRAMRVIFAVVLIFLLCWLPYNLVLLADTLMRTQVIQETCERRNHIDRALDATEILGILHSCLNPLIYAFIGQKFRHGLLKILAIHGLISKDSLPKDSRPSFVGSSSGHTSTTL
# [9] = target: C-C chemokine receptor type 8 (Homo sapiens) (UniProt P51685); test: Antagonist activity at CCR8 (unknown origin) assessed as inhibition of calcium flux at 10 uM; format: functional
# [10] = target: C-C chemokine receptor type 2 (Homo sapiens) (UniProt P41597); test: Antagonist activity at CCR2 (unknown origin) assessed as inhibition of calcium flux at 10 uM; format: functional
# Chain of C-C chemokine receptor type 2 (Homo sapiens) (P41597 whole entry, looked up): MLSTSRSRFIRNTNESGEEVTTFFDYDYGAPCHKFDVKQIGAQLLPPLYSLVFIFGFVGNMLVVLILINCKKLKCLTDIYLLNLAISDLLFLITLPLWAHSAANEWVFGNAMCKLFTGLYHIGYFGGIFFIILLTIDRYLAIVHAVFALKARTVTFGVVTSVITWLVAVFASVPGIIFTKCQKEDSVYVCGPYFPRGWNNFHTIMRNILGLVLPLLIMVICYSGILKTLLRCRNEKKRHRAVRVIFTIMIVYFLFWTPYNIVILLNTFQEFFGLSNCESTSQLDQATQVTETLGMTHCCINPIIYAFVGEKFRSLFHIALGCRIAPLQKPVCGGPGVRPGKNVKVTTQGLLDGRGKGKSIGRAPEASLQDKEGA
# Cytomegalovirus [11] = test: Binding affinity to CMV US28 at 10 uM by radioligand displacement assay
# [12] = target: T5, C-C chemokine receptor-like 2 (Homo sapiens) (UniProt O00421); test: Binding affinity to CCR11 (unknown origin) at 10 uM by radioligand displacement assay
# T5 sequence (whole entry): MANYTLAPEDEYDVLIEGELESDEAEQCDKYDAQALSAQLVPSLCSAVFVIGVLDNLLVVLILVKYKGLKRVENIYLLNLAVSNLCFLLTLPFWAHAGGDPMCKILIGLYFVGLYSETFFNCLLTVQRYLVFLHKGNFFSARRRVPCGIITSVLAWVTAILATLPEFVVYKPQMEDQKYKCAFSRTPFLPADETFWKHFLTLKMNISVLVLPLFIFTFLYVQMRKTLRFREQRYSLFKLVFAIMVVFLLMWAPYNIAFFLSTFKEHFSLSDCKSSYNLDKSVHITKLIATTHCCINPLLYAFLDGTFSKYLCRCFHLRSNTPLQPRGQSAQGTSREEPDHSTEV
# [13] = target: T2, C-C chemokine receptor type 10 (Homo sapiens); test: Binding affinity to CCR10 (unknown origin) at 10 uM by radioligand displacement assay
# [14] = target: C-C chemokine receptor type 2 (Homo sapiens) (UniProt P41597); test: Binding affinity to CCR2 (unknown origin) at 10 uM by radioligand displacement assay
# [15] = target: Voltage-gated inwardly rectifying potassium channel KCNH2 (Homo sapiens, UniProt Q12809); test: Binding affinity to human ERG by patch clamp assay
# Chain of Voltage-gated inwardly rectifying potassium channel KCNH2 (Q12809 whole entry): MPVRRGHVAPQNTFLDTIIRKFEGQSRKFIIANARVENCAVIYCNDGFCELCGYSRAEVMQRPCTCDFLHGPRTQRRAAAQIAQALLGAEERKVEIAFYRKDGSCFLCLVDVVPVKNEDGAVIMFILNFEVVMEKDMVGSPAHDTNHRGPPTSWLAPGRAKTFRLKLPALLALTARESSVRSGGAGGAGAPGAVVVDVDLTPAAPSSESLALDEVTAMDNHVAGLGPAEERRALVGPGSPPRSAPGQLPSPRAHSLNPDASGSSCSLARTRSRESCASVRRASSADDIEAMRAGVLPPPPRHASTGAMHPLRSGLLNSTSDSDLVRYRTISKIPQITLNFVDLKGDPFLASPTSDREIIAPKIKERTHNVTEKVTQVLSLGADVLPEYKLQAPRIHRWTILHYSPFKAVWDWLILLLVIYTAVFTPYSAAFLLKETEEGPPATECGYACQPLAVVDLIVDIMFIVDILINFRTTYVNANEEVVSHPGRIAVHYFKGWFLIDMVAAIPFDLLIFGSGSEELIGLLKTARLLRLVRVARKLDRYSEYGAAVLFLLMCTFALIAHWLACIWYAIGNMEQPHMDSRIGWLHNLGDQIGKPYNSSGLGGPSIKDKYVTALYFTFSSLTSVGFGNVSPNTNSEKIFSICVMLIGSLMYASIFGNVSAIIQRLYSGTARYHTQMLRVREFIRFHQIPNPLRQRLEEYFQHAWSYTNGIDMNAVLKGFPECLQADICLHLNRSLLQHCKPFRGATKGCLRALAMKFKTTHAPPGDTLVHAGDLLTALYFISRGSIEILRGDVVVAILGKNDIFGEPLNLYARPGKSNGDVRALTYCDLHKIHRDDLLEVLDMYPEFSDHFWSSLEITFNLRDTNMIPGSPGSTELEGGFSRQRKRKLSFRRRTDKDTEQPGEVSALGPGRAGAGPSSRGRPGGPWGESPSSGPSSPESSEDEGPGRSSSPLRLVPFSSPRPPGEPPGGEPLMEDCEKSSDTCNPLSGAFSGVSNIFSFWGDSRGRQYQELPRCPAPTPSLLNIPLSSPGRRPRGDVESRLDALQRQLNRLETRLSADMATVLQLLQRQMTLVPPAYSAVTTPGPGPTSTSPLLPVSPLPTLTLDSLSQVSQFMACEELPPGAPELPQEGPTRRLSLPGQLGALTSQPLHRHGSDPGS
# [16] = Plasma clearance in Sprague-Dawley rat at 1 mg/kg, iv; format: ADME, organism-based; set-up: dose 1 mg/kg, route intravenous
# [17] = Oral bioavailability in Sprague-Dawley rat at 5 mg/kg; format: ADME, organism-based; details: in vivo
# [18] = target: C-C chemokine receptor type 1 (Mus musculus, UniProt P51675); test: Displacement of [125I]-CCL3/MIP-1alpha from CCR1 in mouse WEHI274.1 cells; format: cell-based
# Chain of C-C chemokine receptor type 1 (P51675 whole entry): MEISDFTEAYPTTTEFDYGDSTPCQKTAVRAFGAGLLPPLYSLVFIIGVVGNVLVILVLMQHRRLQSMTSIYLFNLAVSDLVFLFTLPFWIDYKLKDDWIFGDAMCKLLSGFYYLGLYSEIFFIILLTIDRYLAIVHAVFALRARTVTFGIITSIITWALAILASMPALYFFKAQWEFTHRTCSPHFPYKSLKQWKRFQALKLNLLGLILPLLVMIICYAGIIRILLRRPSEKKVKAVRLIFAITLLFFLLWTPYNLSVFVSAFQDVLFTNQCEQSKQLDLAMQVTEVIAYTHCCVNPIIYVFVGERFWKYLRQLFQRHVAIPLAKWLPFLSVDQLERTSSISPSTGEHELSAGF
smiles,measurement,setting,value
COc1cc(N2CCN(C(=O)Cn3nc(C(F)(F)F)c(Cl)c3C)CC2)ccc1Cl,inhibition,[1],inactive
same,inhibition,[2],inactive
same,inhibition,[3],inactive
same,inhibition,[4],inactive
same,inhibition,[5],inactive
same,inhibition,[6],inactive
same,inhibition,Cytomegalovirus [7],inactive
same,inhibition,[8],inactive
same,inhibition,[9],inactive
same,inhibition,[10],inactive
same,Activity,Cytomegalovirus [11],inactive
same,Activity,[12],inactive
same,Activity,[13],inactive
same,Activity,[14],inactive
same,IC50,[15],16 µM
same,clearance,[16],20 mL/min/kg
same,bioavailability,[17],52%
same,IC50,[18],3 µM
